Experiment [1] has as its system HCT-116. As to the kind of experiment: Antiproliferative activity against 3x IC95 biaryl selected drug-resistant against human HCT116 cells after 72 hrs by Cell titer Glo assay. Particulars: HCT-116, 72 h. Format: functional, cell-based. For orientation: In ATP-based viability assays light output follows the ATP content of the culture.
Experiment [2] concerns T1, Kinesin-like protein KIF11 (Homo sapiens), P52732 [A133D].
T1 sequence (whole entry): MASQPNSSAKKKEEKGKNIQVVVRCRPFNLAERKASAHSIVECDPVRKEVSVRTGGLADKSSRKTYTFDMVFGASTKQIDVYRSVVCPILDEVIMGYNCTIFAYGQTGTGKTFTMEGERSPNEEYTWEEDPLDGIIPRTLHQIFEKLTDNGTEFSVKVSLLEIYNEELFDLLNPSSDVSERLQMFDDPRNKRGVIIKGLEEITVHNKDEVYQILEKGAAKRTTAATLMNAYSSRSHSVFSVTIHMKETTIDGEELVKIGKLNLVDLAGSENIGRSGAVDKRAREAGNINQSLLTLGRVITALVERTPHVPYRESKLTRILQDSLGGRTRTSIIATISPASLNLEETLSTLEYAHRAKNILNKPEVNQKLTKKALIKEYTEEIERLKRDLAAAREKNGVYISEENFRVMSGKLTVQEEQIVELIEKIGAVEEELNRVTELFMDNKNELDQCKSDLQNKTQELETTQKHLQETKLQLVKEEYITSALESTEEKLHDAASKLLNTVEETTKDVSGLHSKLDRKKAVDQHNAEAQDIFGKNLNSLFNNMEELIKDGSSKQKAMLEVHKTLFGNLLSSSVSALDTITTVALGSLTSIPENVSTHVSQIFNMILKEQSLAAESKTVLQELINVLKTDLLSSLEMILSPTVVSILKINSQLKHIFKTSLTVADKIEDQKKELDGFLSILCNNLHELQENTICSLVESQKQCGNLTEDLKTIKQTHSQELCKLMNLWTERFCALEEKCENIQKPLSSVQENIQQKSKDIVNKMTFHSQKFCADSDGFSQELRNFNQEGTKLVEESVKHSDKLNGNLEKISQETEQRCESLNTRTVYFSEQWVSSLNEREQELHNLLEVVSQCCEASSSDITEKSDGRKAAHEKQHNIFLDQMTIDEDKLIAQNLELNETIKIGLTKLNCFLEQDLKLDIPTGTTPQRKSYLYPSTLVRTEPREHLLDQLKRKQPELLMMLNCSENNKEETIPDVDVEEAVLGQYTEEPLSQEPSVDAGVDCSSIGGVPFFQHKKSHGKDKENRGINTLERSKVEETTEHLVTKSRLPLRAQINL
As to the kind of experiment: Uncompetitive inhibition of human KSP A133D mutant with respect to microtubule using varying ATP levels in presence of saturating levels of microtubule by Lineweaver-Burke plot.

The test system of experiment [3] is HCT-116. As to the kind of experiment: Antiproliferative activity against IC50 biaryl selected human HCT116 cells expressing Kinesin-like protein KIF11 D130V mutant after 72 hrs by Cell titer Glo assay. Particulars: HCT-116, 72 h. Format: functional, cell-based.
Experiment [4] concerns HCT-116. Description: Antiproliferative activity against 3x IC95 biaryl selected human HCT116 cells expressing Kinesin-like protein KIF11 D130V mutant after 72 hrs by Cell titer Glo assay. Format: functional, cell-based. The conditions noted are these: HCT-116, 72 h.
The target of experiment [5] is Kinesin-like protein KIF11 (Homo sapiens, UniProt P52732, I299F). As to the kind of experiment: Inhibition of human KSP I299F mutant in 6x IC95 biaryl selected human HCT116 cells using varying ATP levels in presence of saturating levels of microtubule by Lineweaver-Burke plot. Format: cell-based, HCT-116.
Kinesin-like protein KIF11, sequence (P52732 whole entry I299F): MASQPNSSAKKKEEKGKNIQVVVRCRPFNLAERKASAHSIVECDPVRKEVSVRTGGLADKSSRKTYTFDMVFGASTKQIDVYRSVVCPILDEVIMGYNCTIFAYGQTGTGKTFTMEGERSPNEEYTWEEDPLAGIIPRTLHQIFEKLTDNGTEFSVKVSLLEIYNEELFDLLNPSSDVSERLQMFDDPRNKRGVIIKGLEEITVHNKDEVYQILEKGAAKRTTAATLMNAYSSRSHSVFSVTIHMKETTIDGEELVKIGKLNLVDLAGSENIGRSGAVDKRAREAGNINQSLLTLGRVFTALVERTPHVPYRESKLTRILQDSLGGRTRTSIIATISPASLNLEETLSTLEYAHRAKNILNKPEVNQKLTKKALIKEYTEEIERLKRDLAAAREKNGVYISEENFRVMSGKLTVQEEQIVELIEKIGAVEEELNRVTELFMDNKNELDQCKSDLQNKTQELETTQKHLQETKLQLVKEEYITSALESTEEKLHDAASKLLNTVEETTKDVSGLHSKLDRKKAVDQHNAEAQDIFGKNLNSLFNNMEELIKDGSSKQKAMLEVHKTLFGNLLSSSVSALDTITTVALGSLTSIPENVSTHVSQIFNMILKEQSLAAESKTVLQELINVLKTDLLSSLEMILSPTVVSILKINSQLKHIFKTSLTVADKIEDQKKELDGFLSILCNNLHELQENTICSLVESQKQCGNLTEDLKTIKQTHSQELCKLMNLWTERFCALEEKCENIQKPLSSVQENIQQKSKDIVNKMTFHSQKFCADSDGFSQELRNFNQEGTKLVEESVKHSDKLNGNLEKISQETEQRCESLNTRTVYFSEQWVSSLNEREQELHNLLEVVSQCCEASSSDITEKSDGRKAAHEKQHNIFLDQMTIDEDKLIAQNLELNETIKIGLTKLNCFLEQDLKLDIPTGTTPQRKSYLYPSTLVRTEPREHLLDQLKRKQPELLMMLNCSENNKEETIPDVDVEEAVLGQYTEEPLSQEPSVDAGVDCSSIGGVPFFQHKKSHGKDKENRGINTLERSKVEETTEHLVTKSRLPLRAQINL
The test system of a further experiment is SK-OV-3. Description: Induction of monopolar spindle formation in human SKOV3 cells. The experiment is classed as functional, cell-based.
Experiment [6] deals with HCT-116. Description: Antiproliferative activity against IC95 biaryl selected human HCT116 cells expressing Kinesin-like protein KIF11 D130V mutant after 72 hrs by Cell titer Glo assay. Format: functional, cell-based. The conditions noted are these: HCT-116, 72 h.
A short description of experiment [7]: Inhibition of human KSP KHC-L5 mutant using varying ATP levels in presence of saturating levels of microtubule by Lineweaver-Burke plot.
The subject of experiment [8] is HCT-116. Description: Antiproliferative activity against human HCT116 cells expressing Kinesin-like protein KIF11 D130V mutant after 72 hrs by Cell titer Glo assay. The experiment is classed as functional, cell-based. Particulars: HCT-116, 72 h.
Experiment [9] has as its system HCT-116. As to the kind of experiment: Antiproliferative activity against IC50 biaryl selected drug-resistant against human HCT116 cells after 72 hrs by Cell titer Glo assay. The experiment is classed as functional, cell-based. The conditions noted are these: HCT-116, 72 h.
A short description of experiment [10]: Inhibition of KSP A356 mutant in 3x IC95 biaryl selected human HCT116 cells using varying ATP levels in presence of saturating levels of microtubule by Lineweaver-Burke plot. Format: cell-based. Particulars: hct-116.
Experiment [11] deals with HCT-116. Description: Antiproliferative activity against IC95 biaryl selected drug-resistant against human HCT116 cells after 72 hrs by Cell titer Glo assay. The conditions noted are these: HCT-116, 72 h. Format: functional, cell-based.
Experiment [12] relates to HCT-116. Description: Induction of monopolar spindle formation in human HCT116 cells. The experiment is classed as functional, cell-based.
Experiment [13] deals with HCT-116. As to the kind of experiment: Antiproliferative activity against human HCT116 cells after 72 hrs by Cell titer Glo assay. Format: functional, cell-based. The conditions noted are these: HCT-116, 72 h.

The source made the active and inactive calls. The rule behind the calls is not given here.

For the molecule `O=C1CCc2cc(-c3ccc(C(F)(F)F)cc3)ccc2N1`, the IC50 (as a rule, the concentration needed to halve the response being measured) was found to be 2090 nM in the experiment on HCT-116 [1]; 0.83 nM in the experiment with HCT-116 [3]; 6.9 nM in the experiment with HCT-116 [4]; 3.3 nM in the experiment with HCT-116 [6]; 0.45 nM in the experiment on HCT-116 [8]; 36 nM in the experiment on HCT-116 [9]. Moreover, the IC50 was 162 nM with HCT-116 [11] and 36 nM in the experiment on HCT-116 [13]. Besides, the inhibition entry in [2] is “Active”. Also, the Ki (commonly a measure of affinity in units of concentration, obtained from inhibition or displacement) turned out to be 66 nM in [5], 2.1 nM in experiment [7] and 109 nM in experiment [10]. Besides, the outcome in the experiment on SK-OV-3 and in the experiment on HCT-116 [12] was Active.

For `NC(=O)Nc1ccc(-c2ccc(C(F)(F)F)cc2)cc1F`, the inhibition entry in [2] is “Active”. Moreover, the Ki in experiment [7] worked out at 6 nM.

These data come from ChEMBL document CHEMBL1221208, “ATP-competitive inhibitors of the mitotic kinesin KSP that function via an allosteric mechanism” (Nat Chem Biol, 2007).
